From ChEMBL document CHEMBL1131435, “Biphenylsulfonamide endothelin antagonists: structure-activity relationships of a series of mono- and disubstituted analogues and pharmacology of the orally active endothelin antagonist 2'-amino-N- (3,4-dimethyl-5-isoxazolyl)-4'-(2-methylpropyl)[1, 1'-biphenyl]-2-sulfonamide (BMS-187308)” (J Med Chem, 1998)
Where a SMILES comes first, the peptide text is derived from it.

Key:
[1] = biological target: T1, Endothelin receptor type B (Rattus norvegicus, UniProt P21451); experiment: Ability to inhibit binding of [125I]-ET-1 to membranes prepared from […] rat cerebellum (Endothelin B receptor); type: tissue-based
T1 sequence (P21451 whole entry): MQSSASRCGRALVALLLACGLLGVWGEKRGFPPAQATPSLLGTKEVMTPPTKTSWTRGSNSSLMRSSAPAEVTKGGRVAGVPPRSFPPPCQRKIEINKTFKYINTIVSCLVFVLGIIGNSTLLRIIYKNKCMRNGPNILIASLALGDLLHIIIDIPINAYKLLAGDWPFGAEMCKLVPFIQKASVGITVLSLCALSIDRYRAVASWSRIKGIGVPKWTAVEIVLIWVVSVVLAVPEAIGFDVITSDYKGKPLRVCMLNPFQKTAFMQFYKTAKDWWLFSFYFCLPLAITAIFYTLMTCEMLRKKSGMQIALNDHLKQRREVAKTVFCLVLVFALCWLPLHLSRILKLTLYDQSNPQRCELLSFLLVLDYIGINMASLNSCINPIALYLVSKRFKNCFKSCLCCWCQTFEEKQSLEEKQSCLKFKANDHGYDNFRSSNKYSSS

[2] = biological target: T2, Endothelin-1 receptor (Rattus norvegicus, UniProt P26684); experiment: Ability to inhibit binding of [125I]ET1 to membranes prepared from A10 rat thoracic aorta smooth muscle Endothelin A receptor; type: tissue-based
T2 sequence (P26684 whole entry): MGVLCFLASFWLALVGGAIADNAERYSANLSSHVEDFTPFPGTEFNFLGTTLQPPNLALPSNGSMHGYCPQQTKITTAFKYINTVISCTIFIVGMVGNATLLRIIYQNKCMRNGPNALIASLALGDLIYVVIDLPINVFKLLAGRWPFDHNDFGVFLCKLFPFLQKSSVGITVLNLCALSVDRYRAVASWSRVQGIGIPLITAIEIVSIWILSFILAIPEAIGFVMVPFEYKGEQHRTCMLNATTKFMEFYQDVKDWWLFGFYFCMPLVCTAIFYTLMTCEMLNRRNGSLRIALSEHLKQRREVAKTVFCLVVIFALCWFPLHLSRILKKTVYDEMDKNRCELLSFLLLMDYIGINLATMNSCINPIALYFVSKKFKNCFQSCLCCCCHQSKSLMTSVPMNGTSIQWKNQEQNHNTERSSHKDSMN

Compound	Ki [1] [µM]	Ki [2] [µM]
Cc1noc(NS(=O)(=O)c2ccccc2-c2ccccc2)c1C	> 200	–
Cc1noc(NS(=O)(=O)c2ccccc2-c2ccc(S(=O)(=O)N(C)C)cc2)c1C	> 200	0.56
Cc1noc(NS(=O)(=O)c2ccccc2C(C)C)c1C	–	0.6
Cc1noc(NS(=O)(=O)c2ccccc2-c2cccc(N)c2)c1C	> 200	0.062
Cc1noc(NS(=O)(=O)c2ccccc2-c2ccc(CC(C)(C)C)cc2)c1C	4.1	0.11
Cc1noc(NS(=O)(=O)c2ccccc2-c2ccc(CC(C)C)cc2NCC(=O)O)c1C	12	0.089
Cc1noc(NS(=O)(=O)c2ccccc2-c2ccc(OCC(C)C)cc2)c1C	2.8	0.032
Cc1noc(NS(=O)(=O)c2ccccc2Oc2ccccc2)c1C	–	2.1
CCCCc1ccc(-c2ccccc2S(=O)(=O)Nc2onc(C)c2C)cc1	1.9	0.037
Cc1noc(NS(=O)(=O)c2ccccc2-c2ccc(N(C)C)cc2)c1C	6	0.054
Cc1noc(NS(=O)(=O)c2ccccc2-c2ccc(S(=O)(=O)C(C)C)cc2)c1C	170	0.11
Cc1noc(NS(=O)(=O)c2ccccc2-c2ccccc2CO)c1C	> 200	0.04
Cc1noc(NS(=O)(=O)c2ccccc2-c2ccccc2N(C)C)c1C	> 200	0.103
Cc1[n-][o+]c(NS(=O)(=O)c2ccccc2-c2ccc(CC(C)C)cc2)c1[N+](=O)[O-]	30	–
COc1ccc(S(=O)(=O)Nc2onc(C)c2C)c(-c2ccc(CC(C)C)cc2)c1	6.2	0.37
Cc1noc(NS(=O)(=O)c2cccc3c(N(C)C)cccc23)c1C [BMS-182874]	> 200	0.055
CC(C)Cc1ccc(-c2ccccc2S(=O)(=O)Nc2onc3c2CCCC3)cc1	> 200	24
Cc1noc(NS(=O)(=O)c2ccccc2F)c1C	–	4.7
Cc1noc(NS(=O)(=O)c2ccccc2-c2ccc(CC(C)C)cc2NC(C)C)c1C	2.9	0.034
Cc1ccc(-c2ccccc2S(=O)(=O)Nc2onc(C)c2C)cc1	23	0.055
Cc1noc(NS(=O)(=O)c2ccccc2-c2ccc(OC(C)C)cc2)c1C	1.5	0.017
COc1cc(OC)nc(NS(=O)(=O)c2ccccc2-c2ccc(CC(C)C)cc2)n1	50	3.9
Cc1noc(NS(=O)(=O)c2ccccc2-c2ccc(N(C)C(C)C)cc2)c1C	20	0.06
Cc1noc(NS(=O)(=O)c2ccccc2-c2ccc(CC(C)C)cc2F)c1C	12	0.02
CC(C)C[C@@H]1NC(=O)[C@@H](C(C)C)NC(=O)[C@@H]2CCCN2C(=O)[C@@H](CC(=O)O)NC(=O)[C@@H](Cc2c[nH]c3ccccc23)NC1=O [BQ-123] (HELM PEPTIDE1{L.[dW].[dD].P.[dV]}$PEPTIDE1,PEPTIDE1,1:R1-5:R2$$$V2.0)	–	0.04
CCOC(=O)c1c(C)noc1NS(=O)(=O)c1ccccc1-c1ccc(CC(C)C)cc1	42	7.2
Cc1noc(NS(=O)(=O)c2ccccc2-c2ccc(CC(C)C)cc2C(N)=O)c1C	12	0.1
Cc1noc(NS(=O)(=O)c2ccccc2-c2ccc(NC(C)C)cc2)c1C	17	0.05
Cc1noc(NS(=O)(=O)c2ccccc2-c2ccc(SC(C)C)cc2)c1C	5.7	0.039
Cc1noc(NS(=O)(=O)c2ccccc2-c2ccc(CC(C)C)cc2N(C)C)c1C	> 100	0.33

Now from value to molecule:

Ki [1] [µM]	Ki [2] [µM]	Compound
4	0.042	Cc1noc(NS(=O)(=O)c2cccc(OCC(=O)O)c2-c2ccc(CC(C)C)cc2)c1C
15	0.061	Cc1noc(NS(=O)(=O)c2ccccc2-c2ccc(C(C)(C)C)cc2)c1C
19	0.005	Cc1cc(CC(C)C)ccc1-c1ccccc1S(=O)(=O)Nc1onc(C)c1C
1.4	0.0063	CCNc1cc(CC(C)C)ccc1-c1ccccc1S(=O)(=O)Nc1onc(C)c1C
0.94	0.005	Cc1noc(NS(=O)(=O)c2cccc(O)c2-c2ccc(CC(C)C)cc2)c1C
26	–	Cc1noc(NS(=O)(=O)c2ccccc2-c2ccc(CC(C)C)cc2C(=O)O)c1C
9.8	0.008	Cc1noc(NS(=O)(=O)c2ccccc2-c2ccc(CC(C)C)cc2O)c1C
> 200	–	Cc1noc(NS(=O)(=O)c2ccccc2-c2ccc(C(=O)O)cc2)c1C
> 200	0.016	Cc1noc(NS(=O)(=O)c2ccccc2-c2ccccc2N)c1C
2.1	0.014	Cc1noc(NS(=O)(=O)c2ccc(N)cc2-c2ccc(CC(C)C)cc2)c1C
> 200	> 20	Cc1noc(NS(=O)(=O)c2cc(OCc3ccccc3)ccc2-c2ccc(CC(C)C)cc2)c1C
19	0.05	Cc1noc(NS(=O)(=O)c2ccccc2-c2ccc(C(C)C)cc2)c1C
7.4	1.2	Cc1noc(NS(=O)(=O)c2ccc(NC(=O)CN)cc2-c2ccc(CC(C)C)cc2)c1C
250	0.033	COc1ccc(-c2ccccc2S(=O)(=O)Nc2onc(C)c2C)cc1
> 200	0.112	Cc1noc(NS(=O)(=O)c2ccccc2-c2cccc(N(C)C)c2)c1C
2.3	0.0027	Cc1noc(NS(=O)(=O)c2cccc(OCCO)c2-c2ccc(CC(C)C)cc2)c1C
19	1.3	Cc1cccc(-c2ccc(CC(C)C)cc2)c1S(=O)(=O)Nc1onc(C)c1C
2.2	0.014	CNc1cc(CC(C)C)ccc1-c1ccccc1S(=O)(=O)Nc1onc(C)c1C
38	5.8	Cc1noc(NS(=O)(=O)c2ccc(NC(=O)c3ccccc3)cc2-c2ccc(CC(C)C)cc2)c1C
100	0.97	Cc1cnoc1NS(=O)(=O)c1ccccc1-c1ccc(CC(C)C)cc1
44	0.4	CC(C)Cc1ccc(-c2ccccc2S(=O)(=O)Nc2ccc(Cl)nn2)cc1
> 200	6.4	Cc1noc(NS(=O)(=O)c2ccccc2-c2ccc(CC(C)C)cc2)c1Cc1ccccc1

Ki [1] [µM]	Ki [2] [µM]	Compound
1.2	0.002	Cc1noc(NS(=O)(=O)c2ccccc2-c2ccc(CC(C)C)cc2CNC=O)c1C
5.6	0.19	Cc1noc(NS(=O)(=O)c2ccccc2-c2cccc(CC(C)C)c2)c1C
1.7	0.0047	Cc1noc(NS(=O)(=O)c2ccccc2-c2ccc(CC(C)C)cc2N)c1C
2	0.013	Cc1onc(NS(=O)(=O)c2ccccc2-c2ccc(CC(C)C)cc2)c1C
5.4	0.043	CNC(=O)Nc1cc(CC(C)C)ccc1-c1ccccc1S(=O)(=O)Nc1onc(C)c1C
1.3	0.02	Cc1noc(NS(=O)(=O)c2ccccc2-c2ccc(CC(C)C)cc2CO)c1C
8.4	0.19	Cc1noc(NS(=O)(=O)c2ccccc2-c2ccc(OCc3ccccc3)cc2)c1C
–	0.7	Cc1noc(NS(=O)(=O)c2ccccc2C(F)(F)F)c1C
1.9	0.55	Cc1noc(NS(=O)(=O)c2ccc(NCC(=O)O)cc2-c2ccc(CC(C)C)cc2)c1C
15	0.028	CCCc1ccc(-c2ccccc2S(=O)(=O)Nc2onc(C)c2C)cc1
9.8	–	CC(=O)Nc1ccc(S(=O)(=O)Nc2onc(C)c2C)c(-c2ccc(CC(C)C)cc2)c1
> 200	0.14	Cc1noc(NS(=O)(=O)c2ccccc2-c2ccccc2[N+](=O)[O-])c1C
2	0.016	COc1cccc(S(=O)(=O)Nc2onc(C)c2C)c1-c1ccc(CC(C)C)cc1
–	3.5	Cc1[n-][o+]c(NS(=O)(=O)c2ccccc2[N+](=O)[O-])c1C
1.7	0.018	Cc1noc(NS(=O)(=O)c2ccccc2-c2ccc(CC(C)C)cc2)c1C
1.6	0.0064	Cc1noc(NS(=O)(=O)c2ccccc2-c2ccc(CC(C)C)cc2NCCO)c1C
9.6	0.1	Cc1noc(NS(=O)(=O)c2ccccc2-c2ccc(CC(C)C)cc2CN)c1C
3.7	0.029	CCCNc1cc(CC(C)C)ccc1-c1ccccc1S(=O)(=O)Nc1onc(C)c1C
6.9	0.017	Cc1noc(NS(=O)(=O)c2ccccc2-c2ccc(CC(C)C)cc2NC=O)c1C
24	0.5	Cc1noc(NS(=O)(=O)c2cc(O)ccc2-c2ccc(CC(C)C)cc2)c1C
54	0.074	COc1cc(CC(C)C)ccc1-c1ccccc1S(=O)(=O)Nc1onc(C)c1C
30	0.08	Cc1noc(NS(=O)(=O)c2ccccc2-c2ccc(CCC(C)C)cc2)c1C
